Test results as given in patent US20250243488A1, “METHODS OF MODULATING PROGRANULIN EXPRESSION USING ANTISENSE OLIGONUCLEOTIDES TARGETING REGULATORY RNAS” (Camp4 Therapeutics Corporation, priority 2022, published 2025).
Oligonucleotides are written 5' to 3', each unit as a sugar letter and its base; * is a phosphorothioate linkage, no mark a phosphodiester; rarer units and linkages stand in square brackets, end groups in braces. Plain capitals give the bases only. e = 2'-O-(2-methoxyethyl) (MOE); l = locked nucleic acid (LNA); [5mC] = 5-methylcytosine; d = 2'-deoxy (DNA)

Tested on: GRN mRNA
Test: GRN mRNA qPCR in SK-N-AS cells transfected with ASOs
Format: cell-based, human
Details: SK-N-AS; for hGRN mRNA FC / 120 nM FC (GRN mRNA): 120 nM
Protocol: The best ASOs based on increased GRN mRNA fold-change were selected for further characterization in dose titration studies. Briefly, human neuroblastoma SK-N-AS cells were transfected with 20 to 160 nM of ASOs CO-3423, CO-3431, CO-3463, and CO-3503. A steric non-targeting control ASO (sNTC) was used as a control. Cells were collected for mRNA analysis after 48 hours and GRN mRNA quantified by qPCR. Housekeeping genes for normalization were GAPDH and PPIA, and mRNA fold change (FC) was normalized to sNTC.
36 additional ASOs were designed with different modifications and base walking around selected ASOs. The effect of increasing doses of these ASOs was assessed in the human neuroblastoma cell line SK-N-AS following transfection. Relative GRN mRNA levels in SK-N-AS cells after treatment was assessed 48-hours post-transfection, and data from exemplary ASOs is shown in FIGS. 5A and 5B.
Additional chemical modifications, including LNA, modifications were made to CO-3423. SK-N-AS cells were transfected with increasing concentrations of the LNA/PS modified ASOs and GRN mRNA quantified by qPCR. ASOs including different LNA modifications of CO-3423 had similar efficacy (i.e, similar increased GRN mRNA expression). GRN mRNA was normalized to the average fold-change of cells treated with two steric non-targeting control ASOs (CO-3772 and CO-1589 (sNTC1)).
The effect of ASO length on GRN gene expression modulation was also investigated. SK-N-AS cells were transfected with increasing concentrations of the longer ASOs and GRN mRNA quantified by qPCR. Increasing the length of CO-3423 increased the potency of the ASO, as shown in Table 4. mRNA was normalized to the average fold change of cells treated with two steric non-targeting control ASOs (CO-3772 and CO-1589 (sNTC1)).
To determine whether variations in the PO/PS internucleotide bond linkages impacted the ability of CO-3423 and CO-3431 to modulate gene expression, several modified ASOs based on these parent ASOs were prepared. SK-N-AS cells were transfected with increasing concentrations of the mixed PO/PS bond ASOs described in Tables 5 and 6, and GRN mRNA quantified by qPCR.
GRN mRNA fold-change after treatment with mixed PO/PS bond versions of CO-3423 is shown in Table 5. mRNA was normalized to the average fold change of cells treated with steric nontargeting controls (CO-3772, CO-1589 (sNTC1), and CO-1929 (sNTC3)).
GRN mRNA fold-change after treatment with mixed PO/PS bond versions of CO-3431 is shown in Table 6. mRNA was normalized as described above.
To further assess the effect of additional modifications on the ability of CO-3423 parent ASO to modulate GRN gene expression, additional LNA tiling and PO bond modifications were incorporated to CO-3423. SK-N-AS cells were transfected with increasing concentrations of the modified ASOs and GRN mRNA quantified by qPCR. CO-3423 was used for comparison. GRN mRNA was normalized to the average fold-change of cells treated with a steric non-targeting control ASO, CO-1589 (sNTC1).
To further assess the effect of modifications on the ability of CO-3463 parent ASO to modulate GRN gene expression, ASOs based on this ASOS incorporating additional LNA modifications were prepared and compared to […]. SK-N-AS cells were transfected with increasing concentrations of the ASOs and GRN mRNA quantified by qPCR. GRN mRNA was normalized to the average fold-change of cells treated with a steric non-targeting control ASO, CO-1589 (sNTC1).
68 additional ASOs were designed to target intergenic enhancers (eRNA). 48 hours post-transfection, the cells were collected for GRN mRNA analysis using qPCR. CO-1589, a steric nontargeting control ASO, was used as a control. GRN mRNA was normalized to cells treated with CO-1589.
The best hits from these ASOs were tested in a dose escalation study. Cells were incubated for 48 hours. Subsequently, the cells were collected for mRNA quantification via RT-qPCR. […]

[1] = Table 9, 48 hours post-transfection, normalized to CO-1589
[2] = Table 10, 48 hours, normalized to CO-1589
[3] = Table 4, normalized to CO-3772 and CO-1589 (sNTC1)
[4] = Table 6, normalized to CO-3772, CO-1589 and CO-1929
[5] = Table 12, normalized to CO-1589
[6] = Table 3, normalized to CO-3772 and CO-1589 (sNTC1)
[7] = Table 13, normalized to CO-1589
[8] = Table 11, 48 hours, normalized to CO-1589

“CO-4606: ASO designed to target intergenic enhancers (eRNA) (antisense eA*e[5mC]*eG*eT*eG*eA*eA*eG*eA*eG*e[5mC]*e[5mC]*eG*eG*eA*eG*eA*eT*eT*e[5mC])” was tested, and the “hGRN mRNA FC” value [1] was 1.4 FC, the “3.75 nM FC (GRN mRNA)” value (Table 10, 3.75 nM, 48 hours, normalized to CO-1589) was 1.1 FC and the “7.5 nM FC (GRN mRNA)” value (Table 10, 7.5 nM, 48 hours, normalized to CO-1589) was 1.1 FC. The “15 nM FC (GRN mRNA)” value (Table 10, 15 nM, 48 hours, normalized to CO-1589) was 1.2 FC, the “30 nM FC (GRN mRNA)” value [2] was 1.3 FC and the “60 nM FC (GRN mRNA)” value [2] was 1.4 FC. For the same substance, the “120 nM FC (GRN mRNA)” value [2] was 1.7 FC.
“CO-4361: longer ASO based on CO-3423 (antisense eG*eA*e[5mC]*eT*eT*dG*dG*dG*dA*dG*dT*dG*dG*dT*dG*eA*e[5mC]*eT*eG*eA)” was tested, and the “30 nM FC (GRN mRNA)” value [3] was 1.1 FC, the “60 nM FC (GRN mRNA)” value [3] was 1.3 FC and the “120 nM FC (GRN mRNA)” value [3] was 1.6 FC.
With “CO-4589: ASO designed to target intergenic enhancers (eRNA) (antisense e[5mC]*eG*e[5mC]*eA*eG*eG*e[5mC]*eT*eA*eG*eG*eA*eG*eT*eA*e[5mC]*e[5mC]*e[5mC]*eA*eT)” the “hGRN mRNA FC” value [1] was 1.1 FC.
In the case of “CO-4455: mixed PO/PS bond version of CO-3431 (antisense eA*eT*eTeGe[5mC]*eA*eG*eT*eG*eA*e[5mC]*eG*e[5mC]*e[5mC]*e[5mC]*e[5mC]eGeT*eT*eA)”, the “30 nM FC (GRN mRNA)” value [4] is reported as 0.5 FC, the “60 nM FC (GRN mRNA)” value [4] is reported as 0.4 FC and the “120 nM FC (GRN mRNA)” value [4] is reported as 0.4 FC.
“CO-6392: ASO based on parent ASO CO-3462 (antisense eT*eA*eG*lG*eA*lG*eA*lA*eT*l[5mC]*eG*l[5mC]*eT*lT*eT*lG*eG*lG*eA*eG)” was tested, and the “30 nM FC (GRN mRNA)” value [5] was 1.0 FC, the “60 nM FC (GRN mRNA)” value [5] was 0.8 FC and the “120 nM FC (GRN mRNA)” value [5] was 1.0 FC.
In the case of “CO-4358: LNA/PS modified ASO based on CO-3423 (antisense eG*eG*eA*l[5mC]*eT*eT*eG*lG*eG*eA*eG*lT*eG*eG*eT*lG*eA*e[5mC]*eT*eG)”, the “30 nM FC (GRN mRNA)” value [6] is reported as 1.5 FC, the “60 nM FC (GRN mRNA)” value [6] is reported as 1.9 FC and the “120 nM FC (GRN mRNA)” value [6] is reported as 2.0 FC.
In the case of “CO-6414: ASO based on parent ASOs CO-4363 and CO-4364 (antisense eG*eG*eA*l[5mC]*eT*lT*eG*lG*eG*lA*eG*lT*eG*lG*eT*lG*eA*l[5mC]*eT*eG*eA)”, the “30 nM FC (GRN mRNA)” value [7] is reported as 1.6 FC, the “60 nM FC (GRN mRNA)” value [7] is reported as 1.4 FC and the “120 nM FC (GRN mRNA)” value [7] is reported as 1.3 FC.
With “CO-6419: ASO based on parent ASOs CO-4363 and CO-4364 (eG*eG*eA*e[5mC]*eT*dT*dG*dG*dG*dA*dG*dT*dG*dG*dT*dG*dA*d[5mC]*eT*eG*eA*eA*e[5mC])” the “30 nM FC (GRN mRNA)” value [7] was 1.0 FC, the “60 nM FC (GRN mRNA)” value [7] was 1.0 FC and the “120 nM FC (GRN mRNA)” value [7] was 0.9 FC.
With “CO-4615: ASO designed to target intergenic enhancers (eRNA) (antisense e[5mC]*eA*eT*eT*eT*e[5mC]*eA*e[5mC]*eA*e[5mC]*eT*eT*eG*eT*eA*eT*eG*eA*eG*e[5mC])” the “hGRN mRNA FC” value [1] was 1.0 FC.
In the case of “CO-6416: ASO based on parent ASOs CO-4363 and CO-4364 (eG*eG*lA*e[5mC]*eT*lT*eG*eG*lG*eA*eG*lT*eG*eG*lT*eG*eA*l[5mC]*eT*eG*eA)”, the “30 nM FC (GRN mRNA)” value [7] is reported as 1.4 FC, the “60 nM FC (GRN mRNA)” value [7] is reported as 1.6 FC and the “120 nM FC (GRN mRNA)” value [7] is reported as 2.2 FC.
In the case of “CO-6444: ASO designed to target an intragenic enhancer RNA (eRNA) (eT*eG*e[5mC]*e[5mC]*e[5mC]*eA*eA*eT*eG*e[5mC]*e[5mC]*e[5mC]*eA*eA*e[5mC]*eG*eT*eG*eA*eG)”, the “hGRN mRNA FC” value [8] is reported as 1.0 FC.
“CO-6522: ASO based on parent ASO CO-3462 (antisense eT*eA*eG*eG*eA*eG*eA*eA*eT*e[5mC]*eG*e[5mC]eTeTeTeGeGeG*eA*eG)” was tested, and the “30 nM FC (GRN mRNA)” value [5] was 1.1 FC, the “60 nM FC (GRN mRNA)” value [5] was 1.0 FC and the “120 nM FC (GRN mRNA)” value [5] was 1.1 FC.
“CO-6402: ASO based on parent ASO CO-3462 (antisense eG*eT*eA*eG*eG*lA*dG*dA*lA*dT*d[5mC]*dG*d[5mC]*lT*dT*dT*lG*eG*eG*eA*eG*e[5mC])” was tested, and the “30 nM FC (GRN mRNA)” value [5] was 1.5 FC, the “60 nM FC (GRN mRNA)” value [5] was 1.6 FC and the “120 nM FC (GRN mRNA)” value [5] was 1.8 FC.
In the case of “CO-6393: ASO based on parent ASO CO-3462 (antisense eT*eA*lG*eG*lA*eG*lA*eA*lT*e[5mC]*lG*e[5mC]*lT*eT*lT*eG*lG*eG*eA*eG)”, the “30 nM FC (GRN mRNA)” value [5] is reported as 0.9 FC, the “60 nM FC (GRN mRNA)” value [5] is reported as 0.7 FC and the “120 nM FC (GRN mRNA)” value [5] is reported as 1.0 FC.
With “CO-6388: ASO based on parent ASO CO-3462 (antisense eT*eA*eG*eG*eA*lG*dA*dA*lT*d[5mC]*dG*l[5mC]*dT*dT*lT*eG*eG*eG*eA*eG)” the “30 nM FC (GRN mRNA)” value [5] was 1.1 FC, the “60 nM FC (GRN mRNA)” value [5] was 1.0 FC and the “120 nM FC (GRN mRNA)” value [5] was 1.4 FC.
With “CO-4648: ASO designed to target intergenic enhancers (eRNA) (antisense eA*e[5mC]*eG*e[5mC]*e[5mC]*eA*eA*eA*e[5mC]*e[5mC]*e[5mC]*eT*eT*eG*eA*eT*e[5mC]*e[5mC]*eA*eG)” the “hGRN mRNA FC” value [1] was 1.6 FC.
For “CO-4644: ASO designed to target intergenic enhancers (eRNA) (antisense eG*eT*eT*eA*eA*eG*eT*eA*e[5mC]*eG*eT*eG*eA*e[5mC]*e[5mC]*e[5mC]*eT*eA*eT*e[5mC])”, the “hGRN mRNA FC” value [1] was 1.1 FC.
In the case of “CO-4585: ASO designed to target intergenic enhancers (eRNA) (antisense eT*e[5mC]*eG*eA*eA*eT*e[5mC]*eT*e[5mC]*e[5mC]*eG*eG*e[5mC]*eT*e[5mC]*eT*eT*e[5mC]*eA*e[5mC])”, the “hGRN mRNA FC” value [1] is reported as 1.4 FC.
In the case of “CO-4617: ASO designed to target intergenic enhancers (eRNA) (antisense eG*eG*eA*eG*eA*eT*eA*eG*eG*eG*eT*e[5mC]*eA*e[5mC]*eG*eT*eA*e[5mC]*eT*eT)”, the “hGRN mRNA FC” value [1] is reported as 1.2 FC.
With “CO-6451: ASO designed to target an intragenic enhancer RNA (eRNA) (eA*e[5mC]*eG*eT*eT*eT*eG*e[5mC]*eT*e[5mC]*e[5mC]*eT*e[5mC]*eT*eT*e[5mC]*e[5mC]*eA*eG*eT)” the “hGRN mRNA FC” value [8] was 1.0 FC.
